Values of other authors as cited in patent US6004792A, “Human lysophospholipase” (Incyte Pharmaceuticals, Inc., priority 1998, dated 1999).

Target: T1, monomeric 24 kD lysophospholipase (LPL) from rat liver (GI 1552244; SEQ ID NO:3) (Rattus norvegicus, UniProt P70470)
T1 construct: isolated a monomeric, 24 kD LPL from rat liver; host or cells: rat liver (enzyme isolated from tissue, Sugimoto et al. 1996)
Conditions: substrate 1-palmitoyl-glycero-3-phosphocholine

T1 sequence (P70470 whole entry): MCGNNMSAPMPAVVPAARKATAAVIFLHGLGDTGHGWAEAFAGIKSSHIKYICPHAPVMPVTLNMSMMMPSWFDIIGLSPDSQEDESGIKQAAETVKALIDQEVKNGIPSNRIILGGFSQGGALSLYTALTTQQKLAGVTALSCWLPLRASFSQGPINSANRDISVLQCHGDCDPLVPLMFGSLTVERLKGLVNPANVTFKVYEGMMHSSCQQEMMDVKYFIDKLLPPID

Question: With `CCCCCCCCCCCCCCCC(=O)OCC(O)COP(=O)([O-])OCC[N+](C)(C)C` (stereo not shown) [1-palmitoyl-glycero-3-phosphocholine] as the molecule, how does the Vmax read?
Answer: 1.55 µM/min/mg
